In series [1] the target is T1, FLT3 kinase (Homo sapiens, UniProt P36888).
T1 construct: purchased Invitrogen
T1 sequence (P36888 27-993): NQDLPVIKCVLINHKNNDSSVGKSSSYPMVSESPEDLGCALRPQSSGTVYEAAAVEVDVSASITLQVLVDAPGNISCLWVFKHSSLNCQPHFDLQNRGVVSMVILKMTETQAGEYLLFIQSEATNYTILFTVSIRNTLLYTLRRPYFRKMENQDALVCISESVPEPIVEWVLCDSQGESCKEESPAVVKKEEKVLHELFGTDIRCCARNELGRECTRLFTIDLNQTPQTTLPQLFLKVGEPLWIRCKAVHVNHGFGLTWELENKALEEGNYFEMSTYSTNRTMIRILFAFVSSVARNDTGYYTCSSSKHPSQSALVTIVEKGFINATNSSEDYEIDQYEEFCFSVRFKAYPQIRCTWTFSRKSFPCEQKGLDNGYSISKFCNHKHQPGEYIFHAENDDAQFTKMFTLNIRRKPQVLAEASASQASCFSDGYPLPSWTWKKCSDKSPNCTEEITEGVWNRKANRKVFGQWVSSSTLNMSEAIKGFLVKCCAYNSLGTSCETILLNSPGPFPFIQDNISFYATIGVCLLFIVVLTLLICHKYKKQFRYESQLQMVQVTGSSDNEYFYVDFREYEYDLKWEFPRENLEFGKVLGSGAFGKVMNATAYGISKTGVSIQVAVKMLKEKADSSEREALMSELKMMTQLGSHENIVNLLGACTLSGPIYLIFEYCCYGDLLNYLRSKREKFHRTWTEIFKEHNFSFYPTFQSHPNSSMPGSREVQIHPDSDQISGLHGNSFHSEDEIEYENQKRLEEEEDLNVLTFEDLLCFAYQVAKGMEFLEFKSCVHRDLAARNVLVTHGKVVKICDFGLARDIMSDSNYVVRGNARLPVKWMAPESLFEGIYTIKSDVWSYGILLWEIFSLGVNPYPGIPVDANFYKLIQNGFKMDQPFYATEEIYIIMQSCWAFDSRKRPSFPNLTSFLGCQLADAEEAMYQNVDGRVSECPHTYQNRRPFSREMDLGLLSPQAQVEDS
Nature of the series: Biochemical enzyme inhibition assay (microfluidics, Caliper EZ Reader II), FLT3. The note with it: for IC50: in vitro kinase assay, 60 min pre-incubation, ATP 190 µM, three independent experiments, read-out: FLT3 IC50 (nM) ± SD; for LE: ligand efficiency for FLT3 inhibition. The method, then: Kinase activity was measured in a microfluidics assay that monitors the separation of a phosphorylated product from substrate[31],[32]. […] After, 1 μL was transferred into a 384-well polypropylene assay plate (Greiner, Frickenhausen, Germany). The FLT3 enzyme (Invitrogen™, Grand Island, USA) was diluted in kinase buffer to a concentration of 2 nM and 5 µL of the enzyme mixture was transferred to the assay plate. The inhibitors/FLT3 enzyme were incubated for 60 minutes with minor shaking. […] For positive control, no inhibitor was added. For negative control, no enzyme was added. For running control, quizartinib was utilized. The plate was run until 10–20% conversion based on the positive control wells. The following separation conditions were utilized: upstream voltage −500V; downstream voltage, −1900V; chip pressure −0.8. Percent inhibition was measured for each well comparing starting peptide to phosphorylated product peaks relative to the baseline. Dose response curves, spanning the IC50 dose, were generated in GraphPad Prisim 6 and fit to an exponential one-phase decay line and IC50 values were obtained from the half-life value of the curve. IC50 values were generated in duplicate and error was calculated from the standard deviation between values.
S10. Biochemical Inhibition Assay:1,2 Kinase activity was measured in a microfluidics assay that monitors the separation of a phosphorylated product from substrate. The assay was run using a 12-sipper chip on a Caliper EZ Reader II (PerkinElmer®, Walthman, USA) with separation […]
Walthman, USA]). In 96-well polypropylene plates (Greiner, Frickenhausen, Germany) […]
After, 1 μL was transferred into a 384-well polypropylene assay plate (Greiner, Frickenhausen, Germany). The FLT3 enzyme (Invitrogen™, Grand Island, USA) was diluted in kinase buffer to a concentration of 2 nM and 5 µL of the enzyme mixture was transferred to the assay plate. The inhibitors/FLT3 enzyme were incubated for 60 minutes with minor shaking. A substrate mix was prepared containing ATP (Ambresco®, Solon, USA) and […]
USA) dissolved in kinase buffer, and 5 µL of the substrate mix was added to the assay plate.
For positive control, no inhibitor was added. For negative control, no enzyme was added. For running control, quizartinib was utilized. The plate was run until 10-20% conversion based on the positive control wells. The following separation conditions were utilized: upstream voltage -500V; downstream voltage, -1900V; chip pressure - 0.8. Percent inhibition was measured for each well comparing starting peptide to phosphorylated product peaks relative to the baseline. Dose response curves, spanning the IC50 dose, were generated in GraphPad Prisim 6 and fit to an exponential one-phase decay line and IC50 values were obtained from the half-life value of the curve. IC50 values were generated in duplicate and error was calculated from the standard deviation between values. […]

The values that follow come from paper PMC5829162, “Rational Design, Synthesis and Biological Evaluation of Pyrimidine-4,6-diamine derivatives as Type-II inhibitors of FLT3 Selective Against c-KIT” (Scientific Reports, 2018).

Usually melting point stands for the temperature, or range, at which the solid turns liquid. Usually IC50 stands for the midpoint of a concentration-inhibition curve.

`CS(=O)(=O)c1ccc(Nc2cc(Oc3ccc(CC(=O)Nc4cccc(F)c4)cc3)ncn2)cc1` [13aa, 2-(4-(6-(4-(Methylsulfonyl)phenylamino)pyrimidin-4-yloxy)phenyl)-N-(3-fluorophenyl)acetamide] displayed a melting point of 228 to 230 °C. In series [1], the IC50 was found to be 7878 ± 29 nM and the LE amounted to 0.20.
As for `O=C(Cc1ccc(Nc2cc(NCCCN3CCCC3)ncn2)cc1)Nc1cccc(C(F)(F)F)c1` [13ab, 2-(4-(6-(3-(Pyrrolidin-1-yl)propylamino)pyrimidin-4-ylamino)phenyl)-N-(3-(trifluoromethyl)phenyl)acetamide], in series [1], the IC50 is 9170 ± 236 nM and the LE was 0.19.
The like results for `CS(=O)(=O)c1ccc(Nc2cc(Nc3ccc(CC(=O)Nc4cccc(F)c4)cc3)ncn2)cc1` [13ac, 2-(4-(6-(4-(Methylsulfonyl)phenylamino)pyrimidin-4-ylamino)phenyl)-N-(3-fluorophenyl)acetamide] were, in that order, 11710 ± 106 nM and 0.19.
`CNc1cc(Oc2ccc(CC(=O)Nc3ccc(F)cc3)cc2)ncn1` [13ad, 2-(4-(6-(Methylamino)pyrimidin-4-yloxy)phenyl)-N-(4-fluorophenyl)acetamide] gave a melting point of 124 to 126 °C. In addition, in series [1], the IC50 came to 12800 ± 834 nM and the LE is reported as 0.26.
On the same counts, the results for `CS(=O)(=O)c1ccc(Nc2cc(Nc3ccc(CC(=O)NC4CC4)cc3)ncn2)cc1` [13ae, 2-(4-(6-(4-(Methylsulfonyl)phenylamino)pyrimidin-4-ylamino)phenyl)-N-cyclopropylacetamide] are 110 to 112 °C, 5550 ± 169 nM and 0.23.
`O=C(Cc1ccc(Nc2cc(Nc3cccc(C(F)(F)F)c3)ncn2)cc1)NC1CC1` [13af, 2-(4-(6-(3-(Trifluoromethyl)phenylamino)pyrimidin-4-ylamino)phenyl)-N-cyclopropylacetamide]: in series [1], the IC50 was 8060 ± 274 nM and the LE is on record as 0.23.
As for `CN1CCN(c2cc(Nc3ccc(CC(=O)NC4CC4)cc3)ncn2)CC1` [13ah, 2-(4-(6-(4-Methylpiperazin-1-yl)pyrimidin-4-ylamino)phenyl)-N-cyclopropyl acetamide], in series [1], the IC50 stood at 13560 ± 102 nM and the LE amounted to 0.25.
In the case of `O=C(Cc1ccc(Nc2cc(N3CCOCC3)ncn2)cc1)NC1CC1` [13ai, 2-(4-(6-Morpholinopyrimidin-4-ylamino)phenyl)-N-cyclopropylacetamide], the melting point lay in the range of 110 to 112 °C. In series [1], the IC50 turned out to be 15100 ± 168 nM and the LE came out at 0.25.
The like results for `CCCCNc1cc(Oc2ccc(CC(=O)Nc3nc(C(C)(C)C)cs3)cc2)ncn1` [13aj, 2-(4-(6-(Butylamino)pyrimidin-4-yloxy)phenyl)-N-(4-tert-butylthiazol-2-yl)acetamide] were, in that order, 102 to 104 °C, 7580 ± 132 nM and 0.23.
`COc1ccc(CNC(=O)Cc2ccc(Oc3cc(NC4CCN(Cc5ccccc5)CC4)ncn3)cc2)c(OC)c1` [13ak, N-(2,4-Dimethoxybenzyl)-2-(4-(6-(1-benzylpiperidin-4-ylamino)pyrimidin-4-yloxy)phenyl)acetamide] had a melting point of 102 to 104 °C. For the same molecule, in series [1], the IC50 is 13600 ± 494 nM and the LE turned out to be 0.16.
As for `Cn1nc(C(C)(C)C)cc1NC(=O)Cc1ccc(Nc2cc(NCCCN3CCCCC3)ncn2)cc1` [13c, 2-(4-(6-(3-(Piperidin-1-yl)propylamino)pyrimidin-4-ylamino)phenyl)-N-(3-tert-butyl-1-methyl-1H-pyrazol-5-yl)acetamide], in series [1], the IC50 turned out to be 129.3 ± 0.9 nM and the LE turned out to be 0.26.
Consider `Cn1nc(C(C)(C)C)cc1NC(=O)Cc1ccc(Oc2cc(Nc3ccc(S(C)(=O)=O)cc3)ncn2)cc1` [13e, 2-(4-(6-(4-(Methylsulfonyl)phenylamino)pyrimidin-4-yloxy)phenyl)-N-(3-tert-butyl-1-methyl-1H-pyrazol-5-yl)acetamide], for which, in series [1], the IC50 amounted to 268 ± 25 nM and the LE is 0.24.
`Cn1nc(C(C)(C)C)cc1NC(=O)Cc1ccc(Oc2cc(Nc3cccc(C(F)(F)F)c3)ncn2)cc1` [13f, 2-(4-(6-(3-(Trifluoromethyl)phenylamino)pyrimidin-4-yloxy)phenyl)-N-(3-tert-butyl-1-methyl-1H-pyrazol-5-yl)acetamide] gave a melting point of 140 to 142 °C. Besides, in series [1], the IC50 came to 961 ± 33.7 nM and the LE worked out at 0.22.
As to `CC(C)(C)c1cc(NC(=O)Cc2ccc(Nc3cc(Nc4ccc(S(C)(=O)=O)cc4)ncn3)cc2)n(-c2ccc(F)cc2)n1` [13g, 2-(4-(6-(4-(Methylsulfonyl)phenylamino)pyrimidin-4-ylamino)phenyl)-N-(3-tert-butyl-1-(4-fluorophenyl)-1H-pyrazol-5-yl)acetamide], the melting point was 168 to 170 °C. Moreover, in series [1], the IC50 was determined as 3230 ± 556 nM and the LE was determined as 0.17.
On the same counts, the results for `Cc1ccc(-n2nc(C(C)(C)C)cc2NC(=O)Cc2ccc(Nc3cc(Nc4ccc(S(C)(=O)=O)cc4)ncn3)cc2)cc1` [13h, 2-(4-(6-(4-(Methylsulfonyl)phenylamino)pyrimidin-4-ylamino)phenyl)-N-(3-tert-butyl-1-p-tolyl-1H-pyrazol-5-yl)acetamide] are 155 to 157 °C, 4840 ± 170 nM and 0.16.
For the molecule `Cn1nc(C(C)(C)C)cc1NC(=O)Cc1ccc(Nc2cc(N3CCOCC3)ncn2)cc1` [13i, 2-(4-(6-Morpholinopyrimidin-4-ylamino)phenyl)-N-(3-tert-butyl-1-methyl-1H-pyrazol-5-yl)acetamide], in series [1], the IC50 is 428 ± 99 nM and the LE is 0.27.
Take `O=C(Cc1ccc(Nc2cc(NCCCN3CCCCC3)ncn2)cc1)Nc1ccc(OC(F)(F)F)cc1` [13y, 2-(4-(6-(3-(Piperidin-1-yl)propylamino)pyrimidin-4-ylamino)phenyl)-N-(4-(trifluoromethoxy)phenyl)acetamide]: in series [1], the IC50 came to 6460 ± 251 nM and the LE is recorded as 0.19.
Regarding `Cn1nc(C(C)(C)C)cc1NC(=O)Cc1ccc(Nc2cccc(Nc3ccc(S(C)(=O)=O)cc3)n2)cc1` [compound 18, 2-(4-(6-(4-(Methylsulfonyl)phenylamino)pyridin-2-ylamino)phenyl)-N-(3-tert-butyl-1-methyl-1H-pyrazol-5-yl)acetamide], the “fold less active than 13a on FLT3” value in series [1] (enzymatic FLT3 IC50 compared with 13a) is listed as > 100 fold. Also, the IC50 in series [1] turned out to be 5720 nM.
Turning to “N-(4-Fluorobenzyl)-2-(4-(6-(3-(pyrrolidin-1-yl)propylamino)pyrimidin-4-yloxy)phenyl)acetamide [13w]”, in series [1], the IC50 is 4560 ± 330 nM and the LE is reported as 0.21.
